From ChEMBL document CHEMBL1697731, “Cheminformatics analysis of assertions mined from literature that describe drug-induced liver injury in different species” (Chem Res Toxicol, 2010)
Where a SMILES comes first, the peptide text is derived from it. Bridges are numbered along the chain shown (N, C = ends). [ ]: non-standard residue; d: D form. The star is where a group is joined. Threoninol(2S,3R) = C[C@@H](O)[C@H](CO)N*

Legend:
Hepatotoxicity [1] = experiment: Literature-mined compound from Fourches et al multi-species drug-induced liver injury (DILI) dataset, effect in humans; details: human
Hepatotoxicity [2] = experiment: Literature-mined compound from Fourches et al multi-species drug-induced liver injury (DILI) dataset, effect in rodents; details: rodentia
Hepatotoxicity [3] = experiment: Literature-mined compound from Fourches et al multi-species drug-induced liver injury (DILI) dataset, effect in non-rodents

Compound | Hepatotoxicity (Hepatotoxicity [1]) | Hepatotoxicity (Hepatotoxicity [2]) | Hepatotoxicity (Hepatotoxicity [3]) | Hepatotoxicity (Hepatotoxicity [1]; Liver) | Hepatotoxicity (Hepatotoxicity [2]; Liver) | Hepatotoxicity (Hepatotoxicity [3]; Liver)
CCCc1nc2c(C)cc(-c3nc4ccccc4n3C)cc2n1Cc1ccc(-c2ccccc2C(=O)O)cc1 | drug-induced liver injury reported | drug-induced liver injury reported | no drug-induced liver injury reported | – | – | –
CCCCC(=O)N(Cc1ccc(-c2ccccc2-c2nnn[nH]2)cc1)[C@H](C(=O)O)C(C)C | drug-induced liver injury reported | drug-induced liver injury reported | no drug-induced liver injury reported | – | – | –
CC(C)(C)NC(=O)[C@@H]1C[C@@H]2CCCC[C@@H]2CN1C[C@@H](O)[C@H](Cc1ccccc1)NC(=O)[C@H](CC(N)=O)NC(=O)c1ccc2ccccc2n1 | – | – | – | drug-induced liver injury reported | no drug-induced liver injury reported | no drug-induced liver injury reported
COc1cnc(NS(=O)(=O)c2ccc(N)cc2)nc1 | drug-induced liver injury reported | no drug-induced liver injury reported | no drug-induced liver injury reported | – | – | –
CC1=C(CC(=O)O)c2cc(F)ccc2/C1=C\c1ccc([S+](C)[O-])cc1 (stereo not drawn) | drug-induced liver injury reported | drug-induced liver injury reported | no drug-induced liver injury reported | – | – | –
CCN(CC)Cc1cc(Nc2ccnc3cc(Cl)ccc23)ccc1O.Cl | – | – | – | drug-induced liver injury reported | drug-induced liver injury reported | no drug-induced liver injury reported
CCC[C@H](NC(=O)[C@@H]1[C@H]2CCC[C@H]2CN1C(=O)[C@@H](NC(=O)[C@@H](NC(=O)c1cnccn1)C1CCCCC1)C(C)(C)C)C(=O)C(=O)NC1CC1 | drug-induced liver injury reported | no drug-induced liver injury reported | no drug-induced liver injury reported | – | – | –
O=C(O)COc1ccc(C(=O)c2cccs2)c(Cl)c1Cl | drug-induced liver injury reported | drug-induced liver injury reported | no drug-induced liver injury reported | – | – | –
O=C(O)C(S)C(S)C(=O)O (stereo not drawn) | drug-induced liver injury reported | drug-induced liver injury reported | no drug-induced liver injury reported | – | – | –
COc1ccc(/C=C/C(=O)Nc2ccccc2C(=O)O)cc1OC | no drug-induced liver injury reported | drug-induced liver injury reported | no drug-induced liver injury reported | – | – | –
C[C@@H](O)[C@H](CO)NC(=O)[C@@H]1CSSC[C@H](NC(=O)[C@H](N)Cc2ccccc2)C(=O)N[C@@H](Cc2ccccc2)C(=O)N[C@H](Cc2c[nH]c3ccccc23)C(=O)N[C@@H](CCCCN)C(=O)N[C@@H]([C@@H](C)O)C(=O)N1 (H-[dF]CF[dW]KTC-{Threoninol(2S,3R)}; disulfide 2-7) | drug-induced liver injury reported | drug-induced liver injury reported | no drug-induced liver injury reported | – | – | –
CN1[C@@H]2CC[C@H]1C[C@@H](OC(=O)C(CO)c1ccccc1)C2 (mixture of isomers) [ATROPINE] | – | – | – | no drug-induced liver injury reported | drug-induced liver injury reported | no drug-induced liver injury reported
CCN(CC)CCOc1ccc(C(=C(Cl)c2ccccc2)c2ccccc2)cc1 (stereo in doubt; form 1) [CLOMIPHENE] | drug-induced liver injury reported | no drug-induced liver injury reported | no drug-induced liver injury reported | – | – | –
C[C@]12CCC(=O)C=C1CC[C@@H]1[C@@H]2CC[C@@]2(C)[C@H]1CC[C@]2(C)O (stereo in doubt; form 1) [METHYLTESTOSTERONE] | no drug-induced liver injury reported | drug-induced liver injury reported | no drug-induced liver injury reported | – | – | –
CC(=O)[C@H]1CC[C@H]2[C@@H]3CCC4=CC(=O)CC[C@]4(C)[C@H]3CC[C@]12C (stereo in doubt; form 1) [PROGESTERONE] | drug-induced liver injury reported | drug-induced liver injury reported | drug-induced liver injury reported | – | – | –
COc1cc2c(cc1O)CC[C@@H]1[C@@H]2CC[C@]2(C)[C@@H](O)CC[C@@H]12 [2-METHOXYESTRADIOL] | drug-induced liver injury reported | drug-induced liver injury reported | no drug-induced liver injury reported | – | – | –
O=c1[nH]cc(Br)c(=O)[nH]1 [5-BROMOURACIL] | no drug-induced liver injury reported | drug-induced liver injury reported | no drug-induced liver injury reported | – | – | –
Cc1cn([C@@H]2O[C@H](CO)[C@@H](O)[C@@H]2F)c(=O)[nH]c1=O [5-METHYL-2'-FLUOROARAURACIL] | drug-induced liver injury reported | no drug-induced liver injury reported | no drug-induced liver injury reported | – | – | –
C[C@H](N)[C@H](O)c1ccccc1 [(1R,2S)-PHENYLPROPANOLAMINE] | no drug-induced liver injury reported | drug-induced liver injury reported | no drug-induced liver injury reported | – | – | –
CC(C)=CCN1CC[C@]2(C)c3cc(O)ccc3C[C@H]1[C@H]2C [(+)-PENTAZOCINE] | no drug-induced liver injury reported | drug-induced liver injury reported | no drug-induced liver injury reported | – | – | –
NC(=O)c1ncn([C@@H]2O[C@H](CO)[C@@H](O)[C@H]2O)c1N [ACADESINE] | no drug-induced liver injury reported | drug-induced liver injury reported | no drug-induced liver injury reported | – | – | –
C[C@H]1O[C@H](O[C@H]2[C@H](O)[C@@H](O)[C@@H](O[C@H]3[C@H](O)[C@@H](O)C(O)O[C@@H]3CO)O[C@@H]2CO)[C@H](O)[C@@H](O)[C@@H]1N[C@H]1C=C(CO)[C@@H](O)[C@H](O)[C@H]1O (stereo partly drawn) [ACARBOSE] | drug-induced liver injury reported | drug-induced liver injury reported | no drug-induced liver injury reported | – | – | –
CCCC(=O)Nc1ccc(OCC(O)CNC(C)C)c(C(C)=O)c1 (stereo not drawn) [ACEBUTOLOL] | drug-induced liver injury reported | drug-induced liver injury reported | no drug-induced liver injury reported | – | – | –
CC(=O)CC(c1ccc([N+](=O)[O-])cc1)c1c(O)c2ccccc2oc1=O (stereo not drawn) [ACENOCOUMAROL] | drug-induced liver injury reported | no drug-induced liver injury reported | no drug-induced liver injury reported | – | – | –
CC(N)=O [ACETAMIDE] | no drug-induced liver injury reported | drug-induced liver injury reported | no drug-induced liver injury reported | – | – | –
CC(=O)Nc1ccc(O)cc1 [ACETAMINOPHEN] | drug-induced liver injury reported | drug-induced liver injury reported | drug-induced liver injury reported | – | – | –
